The source of these data is the supplement of paper PMC12137928.

The test system of experiment [1] is HCT116. The following applies: 72 h. A digest of the protocol: (§1)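 HCT116 cells were seeded at 250 per well in 1536-well plates with 5 h allowed for attachment. CellTiter-Glo luminescence was normalized against vehicle (0%) and positive control (-100%) before pattern correction. The IC50 and maximal efficacy figures derive from four-parameter Hill fits.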
The test system of experiment [2] is HCT116. Kind of experiment: efficacy (maximum % inhibition of viability vs DMSO); higher = more cytotoxic. The following applies: 72 h. A digest of the protocol:
as §1

Counter-ions that a name gives are not always drawn. Where only a bound is given, the exact number is not on record here.

Turning to `O=C(/C=C/c1cccc(S(=O)(=O)Nc2ccccc2)c1)NO` [Belinostat], the results for the IC50 cell viability with HCT116 [1] (ICRF193 0 nM) and with HCT116 [1] (ICRF193 200 nM) were 1.3 µM and 1.16 µM, respectively. The results for the efficacy in the experiment on HCT116 [2] (ICRF193 0 nM) and with HCT116 [2] (ICRF193 200 nM) were 100% and 62.1%, respectively.

With `NS(=O)(=O)c1cc2c(cc1C(F)(F)F)NC(Cc1ccccc1)NS2(=O)=O` (centres undefined) [Bendroflumethiazide], the results for the IC50 cell viability in the experiment with HCT116 [1] (ICRF193 0 nM) and with HCT116 [1] (ICRF193 200 nM) were more than 45.8 µM and 0.92 µM, respectively. This compound also returned an efficacy in the experiment on HCT116 [2] (ICRF193 200 nM) of 68.8%.

Consider `CCc1oc2ccccc2c1C(=O)c1cc(I)c(O)c(I)c1` [Benziodarone], for which the IC50 cell viability in the experiment with HCT116 [1] (ICRF193 0 nM) was more than 45.8 µM; in the experiment on HCT116 [1] (ICRF193 200 nM) it was 29.1 µM. In the experiment on HCT116 [2] (ICRF193 200 nM), the efficacy is 44.1%.

Take `O=C(Oc1cccc2cccnc12)c1ccccc1` [Benzoxiquine]: the IC50 cell viability is more than 45.8 µM in the experiment with HCT116 [1] (ICRF193 0 nM) and 29.1 µM in the experiment on HCT116 [1] (ICRF193 200 nM). This compound also showed an efficacy in the experiment on HCT116 [2] (ICRF193 200 nM) of 70.8%.

As for `NS(=O)(=O)c1cc2c(cc1Cl)N=C(CSCc1ccccc1)NS2(=O)=O` [Benzthiazide], the IC50 cell viability in the experiment with HCT116 [1] (ICRF193 0 nM) is more than 45.8 µM; with HCT116 [1] (ICRF193 200 nM), 29.1 µM. Besides, the efficacy with HCT116 [2] (ICRF193 200 nM) is 77%.

Take `CCCCCCCCCCCCCCCC[N+](C)(C)Cc1ccccc1` [Benzylhexadecyldimethylammonium chloride]: the IC50 cell viability with HCT116 [1] (ICRF193 0 nM) and in the experiment with HCT116 [1] (ICRF193 200 nM) was 18.3 µM in each case. Besides, the efficacy was determined as 128% in the experiment with HCT116 [2] (ICRF193 0 nM) and 129% in the experiment on HCT116 [2] (ICRF193 200 nM).

For the compound `CC(C)COCC(CN(Cc1ccccc1)c1ccccc1)N1CCCC1` (centres undefined) [Bepridil], the IC50 cell viability turned out to be 20.6 µM in the experiment on HCT116 [1] (ICRF193 0 nM) and 29.1 µM in the experiment on HCT116 [1] (ICRF193 200 nM). Further, the efficacy was 85.1% in the experiment on HCT116 [2] (ICRF193 0 nM) and 73.2% with HCT116 [2] (ICRF193 200 nM).

For the compound `COc1ccc2cc3[n+](cc2c1OC)CCc1cc2c(cc1-3)OCO2` [Berberine], the results for the IC50 cell viability in the experiment on HCT116 [1] (ICRF193 0 nM) and in the experiment on HCT116 [1] (ICRF193 200 nM) were 23.1 µM and 10.3 µM, respectively. The results for the efficacy with HCT116 [2] (ICRF193 0 nM) and with HCT116 [2] (ICRF193 200 nM) were 50.1% and 56.1%, respectively.

`CC(C)NCC(O)COc1ccc(CCOCC2CC2)cc1` (centres undefined) [Betaxolol HCl]: the IC50 cell viability is more than 45.8 µM in the experiment on HCT116 [1] (ICRF193 0 nM) and 5.17 µM in the experiment on HCT116 [1] (ICRF193 200 nM). This compound had an efficacy with HCT116 [2] (ICRF193 200 nM) of 76.2%.

Consider `CNCCCCOc1ccccc1Cc1ccccc1` [Bifemelane], for which the IC50 cell viability with HCT116 [1] (ICRF193 0 nM) worked out at 20.6 µM; in the experiment on HCT116 [1] (ICRF193 200 nM), 14.6 µM. In addition, the efficacy was determined as 40.6% in the experiment on HCT116 [2] (ICRF193 0 nM) and 49.6% in the experiment with HCT116 [2] (ICRF193 200 nM).

On to `c1ccc(-c2ccc(C(c3ccccc3)n3ccnc3)cc2)cc1` (centres undefined) [Bifonazole], for which the IC50 cell viability was determined as 25.9 µM with HCT116 [1] (ICRF193 0 nM) and 16.4 µM with HCT116 [1] (ICRF193 200 nM). Further, the efficacy in the experiment with HCT116 [2] (ICRF193 0 nM) stood at 75.7%; with HCT116 [2] (ICRF193 200 nM), 75.2%.

As for `CC(=O)Oc1ccc(C(c2ccc(OC(C)=O)cc2)c2ccccn2)cc1` [Bisacodyl], the results for the IC50 cell viability with HCT116 [1] (ICRF193 0 nM) and in the experiment on HCT116 [1] (ICRF193 200 nM) were 2.06 µM and more than 45.8 µM, respectively. Besides, the efficacy with HCT116 [2] (ICRF193 0 nM) worked out at 48.1%.

As to `CC(=O)Oc1ccc(C2(c3ccc(OC(C)=O)cc3)Oc3ccccc3NC2=O)cc1` [Bisoxatin acetate], the figures for the IC50 cell viability in the experiment with HCT116 [1] (ICRF193 0 nM) and in the experiment on HCT116 [1] (ICRF193 200 nM) were 14.6 µM and 20.6 µM, respectively. In addition, the efficacy in the experiment with HCT116 [2] (ICRF193 0 nM) was determined as 66.7%; in the experiment on HCT116 [2] (ICRF193 200 nM), 89%.

Consider `Oc1c(Cl)cc(Cl)cc1Sc1cc(Cl)cc(Cl)c1O` [Bithionol], for which the IC50 cell viability in the experiment on HCT116 [1] (ICRF193 0 nM) came out at 18.3 µM; with HCT116 [1] (ICRF193 200 nM) it was 20.6 µM. In addition, the values for the efficacy with HCT116 [2] (ICRF193 0 nM) and in the experiment with HCT116 [2] (ICRF193 200 nM) were 92.2% and 108%, respectively.

Turning to `CC(C)C[C@H](NC(=O)[C@H](Cc1ccccc1)NC(=O)c1cnccn1)B(O)O` [Bortezomib], the IC50 cell viability in the experiment on HCT116 [1] (ICRF193 0 nM) and in the experiment on HCT116 [1] (ICRF193 200 nM) was 0.00517 µM throughout. Further, the values for the efficacy in the experiment with HCT116 [2] (ICRF193 0 nM) and in the experiment with HCT116 [2] (ICRF193 200 nM) were 93.7% and 97.3%, respectively.

For the compound `COc1cc(Nc2c(C#N)cnc3cc(OCCCN4CCN(C)CC4)c(OC)cc23)c(Cl)cc1Cl` [Bosutinib], the IC50 cell viability with HCT116 [1] (ICRF193 0 nM) was 29.1 µM; in the experiment with HCT116 [1] (ICRF193 200 nM), 18.3 µM. For the same compound, the efficacy in the experiment with HCT116 [2] (ICRF193 0 nM) came to 106%; in the experiment on HCT116 [2] (ICRF193 200 nM), 132%.

On to `O=c1ccc2ccc(OCCCCN3CCN(c4cccc5sccc45)CC3)cc2[nH]1` [Brexpiprazole], for which the values for the IC50 cell viability in the experiment on HCT116 [1] (ICRF193 0 nM) and in the experiment with HCT116 [1] (ICRF193 200 nM) were 18.3 µM and 20.6 µM, respectively. The efficacy worked out at 102% in the experiment on HCT116 [2] (ICRF193 0 nM) and 106% in the experiment with HCT116 [2] (ICRF193 200 nM).

For the compound `COc1cc(N2CCC(N3CCN(C)CC3)CC2)ccc1Nc1ncc(Cl)c(Nc2ccccc2P(C)(C)=O)n1` [Brigatinib], the IC50 cell viability in the experiment with HCT116 [1] (ICRF193 0 nM) worked out at 20.6 µM; in the experiment with HCT116 [1] (ICRF193 200 nM), 13 µM. Further, the efficacy with HCT116 [2] (ICRF193 0 nM) turned out to be 82.6%; with HCT116 [2] (ICRF193 200 nM) it was 92.5%.

As for `O=C(CCCN1CCC(O)(c2ccc(Br)cc2)CC1)c1ccc(F)cc1` [Bromperidol], the IC50 cell viability with HCT116 [1] (ICRF193 0 nM) amounted to 18.3 µM; in the experiment with HCT116 [1] (ICRF193 200 nM), 20.6 µM. Besides, the efficacy with HCT116 [2] (ICRF193 0 nM) turned out to be 44.8%; in the experiment with HCT116 [2] (ICRF193 200 nM) it was 55.1%.

For the compound `CC(C)(C)c1ccc(CN2CCN(C(c3ccccc3)c3ccc(Cl)cc3)CC2)cc1` (centres undefined) [Buclizine HCl], the IC50 cell viability in the experiment with HCT116 [1] (ICRF193 0 nM) and with HCT116 [1] (ICRF193 200 nM) was 20.6 µM each time. The efficacy was determined as 42.9% in the experiment on HCT116 [2] (ICRF193 0 nM) and 59% in the experiment with HCT116 [2] (ICRF193 200 nM).

`C[C@]12CC[C@H](O)C[C@H]1CC[C@@H]1[C@@H]2CC[C@]2(C)[C@@H](c3ccc(=O)oc3)C[C@H]3O[C@]132` [Bufogenin]: the IC50 cell viability in the experiment on HCT116 [1] (ICRF193 0 nM) and with HCT116 [1] (ICRF193 200 nM) was 4.61 µM throughout. The values for the efficacy with HCT116 [2] (ICRF193 0 nM) and with HCT116 [2] (ICRF193 200 nM) were 71.3% and 84.6%, respectively.

As for `CCCCCCOc1ccc(C(=N)N(CCCC)CCCC)c2ccccc12` [Bunamidine hydrochloride], the IC50 cell viability is 11.6 µM in the experiment with HCT116 [1] (ICRF193 0 nM) and 10.3 µM with HCT116 [1] (ICRF193 200 nM). Moreover, the efficacy stood at 104% in the experiment on HCT116 [2] (ICRF193 0 nM) and 106% in the experiment on HCT116 [2] (ICRF193 200 nM).

Take `Clc1ccc(CCC(Cn2ccnc2)Sc2c(Cl)cccc2Cl)cc1` (centres undefined) [Butoconazole nitrate]: the IC50 cell viability with HCT116 [1] (ICRF193 0 nM) turned out to be 20.6 µM; in the experiment on HCT116 [1] (ICRF193 200 nM), 25.9 µM. In addition, the figures for the efficacy in the experiment with HCT116 [2] (ICRF193 0 nM) and with HCT116 [2] (ICRF193 200 nM) were 96% and 93.9%, respectively.

Consider `CC1=CC(=C(c2ccc(N)cc2)c2ccc(N)cc2)C=CC1=N` [C.I. Basic Violet 14], for which the figures for the IC50 cell viability with HCT116 [1] (ICRF193 0 nM) and in the experiment with HCT116 [1] (ICRF193 200 nM) were 10.3 µM and 5.17 µM, respectively. For the same compound, the efficacy worked out at 98.1% in the experiment on HCT116 [2] (ICRF193 0 nM) and 92.3% in the experiment with HCT116 [2] (ICRF193 200 nM).

In the case of `O=C(O)C1=C(CSc2nnnn2CS(=O)(=O)O)CS[C@@H]2[C@H](NC(=O)[C@H](O)c3ccccc3)C(=O)N12` [CEFONICID SODIUM], the IC50 cell viability in the experiment on HCT116 [1] (ICRF193 0 nM) was more than 45.8 µM; in the experiment on HCT116 [1] (ICRF193 200 nM), 6.51 µM. In the experiment on HCT116 [2] (ICRF193 200 nM), this compound showed an efficacy of 85.2%.

Consider `C=C1CC[C@H](O)C/C1=C/C=C1\CCC[C@]2(C)[C@@H]([C@H](C)CCCC(C)C)CC[C@@H]12` [CHOLECALCIFEROL], for which the IC50 cell viability in the experiment with HCT116 [1] (ICRF193 0 nM) and with HCT116 [1] (ICRF193 200 nM) was 23.1 µM throughout. Also, the efficacy was determined as 87.9% with HCT116 [2] (ICRF193 0 nM) and 79.4% with HCT116 [2] (ICRF193 200 nM).

Consider `CO[C@H]1C(=O)[C@]2(C)[C@@H](OC)C[C@H]3OC[C@@]3(OC(C)=O)[C@H]2[C@H](OC(=O)c2ccccc2)[C@]2(O)C[C@H](OC(=O)[C@H](O)[C@@H](NC(=O)OC(C)(C)C)c3ccccc3)C(C)=C1C2(C)C` [Cabazitaxel], for which the IC50 cell viability was more than 45.8 µM with HCT116 [1] (ICRF193 0 nM) and 0.0058 µM in the experiment on HCT116 [1] (ICRF193 200 nM). The efficacy with HCT116 [2] (ICRF193 200 nM) was 65.5%.

Turning to `COc1cc2nccc(Oc3ccc(NC(=O)C4(C(=O)Nc5ccc(F)cc5)CC4)cc3)c2cc1OC` [Cabozantinib], the results for the IC50 cell viability in the experiment on HCT116 [1] (ICRF193 0 nM) and with HCT116 [1] (ICRF193 200 nM) were 20.6 µM and 16.4 µM, respectively. In addition, the figures for the efficacy with HCT116 [2] (ICRF193 0 nM) and in the experiment on HCT116 [2] (ICRF193 200 nM) were 58.4% and 69.8%, respectively.
